Laboratory results as given in patent US20070082018A1, “Stabilized antimicrobial compositions and related methods of preparation” (priority 2005, published 2007).

What was measured:
[1] = Critical micelle concentration from surface tension (drop shape tensiometry); type: physicochemical; settings: for Critical micelle concentration (CMC): pure systems in water
Protocol: The critical micelle concentration of the pure systems was determined by plotting surface tension values against the logarithm of the total surfactant concentration. In order to determine the values of the critical micelle concentration, two linear fits were used. The first line was fitted to interval of concentration characterized by linear decrease of the surface tension and the second one to the region of concentration with the nearly constant surface tension. The point in which the fitted lines cross corresponds to the value of the critical micelle concentration (CMC). Here, the CMC is reached at a Mirenat concentration 0.25% v/v. This corresponds to 1.65 mmol.L^−1 of lauric arginate, 4 times lower than the literature value. Accordingly, all experiments will be carried out at a concentration largely exceeding the found value: 5% v/v.
Measurement of Surface Tension. A drop shape analysis tensiometer (Model DSA-G10 MK2, Kruss USA, Charlotte, N.C.) was used to determine surface tension of surfactant solutions (20.0±0.5° C.). The tensiometer determines the shape of pendant drops or bubbles through numerical analysis of the entire drop shape. The calculation of the interfacial tension from the drop shape is based on the Young-Laplace equation of capillarity and a detailed description can be found elsewhere (Dukhin, Kretschmer et al. 1995). Surface tension measurements were carried out at 20.0±0.5 ° C. To ensure accurate temperature control, an air bubble was formed at the inverted tip of a syringe that was submerged in the surfactant solution contained in a thermostatted cuvette. The syringe/cuvette system was positioned on an optical bench between the light source and a high-speed CCD camera. […] Samples were assumed to be equilibrated (the equilibrium dynamic interfacial tension DITeq) when measured values of DITeq remained unchanged for 30 minutes. […] Solution were equilibrated to 20° C. in a waterbath and density measured using a digital density meter (DMA 35N, Anton Paar GmbH, Graz, Austria). […]

[2] = Solution turbidity (absorbance at 600 nm) and precipitation versus pH on NaOH titration; type: physicochemical; settings: aqueous solutions, 5 wt % LAE, pH 2-13
Protocol: The solution pH was increased stepwise by adding 0.5N NaOH and was recorded 2 min following each addition. It was plotted against the total amount of OH added for each of the solutions. Three minutes following each addition, a sub-sample was delivered via pipette into a cuvette for light absorption determination. […] However, this drastic change doesn't occur at the same hydroxide ions concentration for each of the different T20 concentrations. Indeed, it progressively shifts to the right of the graphic. Notice that beginning pH values are very close to each other for each solution. To the contrary, final pH values corresponding to the addition of 11 mmol OH^− are not the same and tend to decrease while the amount of T20 becomes higher. […]
pH would be expected to have an effect on precipitation as it affects the concentration of background ions H^+ and OH^− in the medium. […] It has been assumed that the initial rate of change in absorbance in the dispersions is a qualitative measure of the precipitation rate. […]
Solution Turbidity. Absorbance of solutions adjusted to pH or containing salts was measured by spectroscopy at a wavelength of 600 nm using a UV-Visible spectrophotometer (Spectronic 21D, Milton Roy, Rochester, N.Y.). […] The change in the of absorbance of solutions was used as an indirect measure to formation of larger particles an/or aggregates.

[3] = Effect of salts on stability of surfactant solutions, visual observation of precipitation; type: physicochemical; settings: aqueous solutions, 5 wt % LAE
Protocol: Several experiments were conducted to examine the influence of salts on the stability of solutions containing Mirenat. The pH was not controlled here, as the buffer could mask the real behavior of the system. Still, it remained almost unchanged after the addition of salts. The added counterion (anion) contributed by the added electrolyte is assumed to be the same species as that contributed by the cationic surfactant, i.e. chloride ions Cl^−. Therefore, chloride salts, i.e. sodium chloride NaCl and calcium chloride CaCl2, were used. […] Precipitation occurred slowly, especially with low salt concentration where it could take up to 5 days. […] Almost every time precipitation took place, little or even no turbidity was noticeable. The results provided in Table 1 reflect qualitative visual observation.
Materials and Solution Preparation. Concentrated Mirenat®-N solution (25% lauric arginate, 75% PEG) was obtained from A&B Ingredients and used without further purification. Polyoxyethylene 20 sorbitan monolaureate (Tween 20), solvents (HCl, NaOH, purity >99%) and NaCl (>99%) was obtained from Sigma Chemical (St. Louis, Mo.). All solutions were prepared using doubles distilled and deionized water. Micellar solutions were prepared by gently mixing surfactants (Tween and LAE) at appropriate concentrations with double distilled water. As needed, pH was adjusted using HCl and NaOH.

Escherichia coli = settings: cited from earlier work
Listeria monocytogenes = settings: cited from earlier work

## CCCCCCCCCCCC(=O)N[C@@H](CCCNC(=N)N)C(=O)OCC.Cl [LAE, ethyl-N^alpha-dodecanoyl-L-arginate hydrochloride]
[1]; corresponds to Mirenat 0.25% v/v
  Critical micelle concentration (CMC) as lauric arginate: 1.65 mmol/L
[1]
  Critical micelle concentration (CMC): 0.25 % v/v
[2]
  pH at which precipitates form: > 4.1
[3]
  CaCl2 concentration at which precipitates form: > 15 g/L
  NaCl concentration at which precipitates form: > 10 g/L
Escherichia coli
  Minimum inhibitory concentration: less than 10 ppm
Listeria monocytogenes
  Minimum inhibitory concentration: less than 10 ppm

## Polyoxyethylene 20 sorbitan monolaureate [T20]
[1]
  Critical micelle concentration (CMC): 0.3 % v/v
